Assay results published in PMC10090446, “Population pharmacokinetic analysis and dosing optimization of polymyxin B in critically ill patients” (Frontiers in Pharmacology, 2023).
Where two headings read alike, the source gives them in different places. Positions of bridges follow the written chain, without caps; N, C: chain ends. Non-standard residues stand in square brackets, D forms with d. Residues, ends and D or L forms follow the SMILES beside them. *: point of attachment. X1 = CC[C@H](C)CCCCC(=O)*; Dab = NCC[C@H](N)C(=O)O

Experiments:
[1] = Population pharmacokinetic (PPK) model, non-parametric adaptive grid (Pmetrics), critically ill patients; format: in vivo, human; conditions: for clearance: human
Source text: We gather data from critically ill patients (≥18 years old) who were given intravenous drip polymyxin B treatment with blood concentration monitoring at the hospital from November 2021 to September 2022. The attending physician decided to administer polymyxin B. At the same time, patients who received continuous renal replacement therapy (CRRT) (n = 10) or extracorporeal membrane oxygenation (ECMO) (n = 2) at the time of blood collection were excluded. Patients’ information, including gender, age, WT, serum creatinine (Scr), CCR, ALB, APACHE-II, infection diagnosis, and pathogenic bacteria, were obtained from the electronic system for medical records. CCR was generated by adopting the Cockcroft—Gault equation with WT and age ([Cucci et al., 2022]). The Ethical Committees of the Second Affiliated Hospital of the South China University of Technology authorized the study (K-2022-020-01).
Patients were treated with polymyxin B, and plasma samples were collected ≥ 48 h after the treatment. Each patient contributed clinical samples, of which 37.5% (n = 24) were sampled with troughs (within 1 h before administration), 35.9% (n = 23) were sampled with peaks (within 1 h after the end of the infusion), and 26.6% (n = 17) were sampled at 6-8 h after the infusion. The dosing regimens of polymyxin B were a loading dose of 100 mg–150 mg and a maintenance dose of 50 mg–75 mg q12h, and the infusion duration was about 1–2 h. In preparation for analysis, samples were centrifuged for 10 min at 3000 r min^-1 after collection, and the upper plasma after centrifugation was stored at −20°C.
According to previous studies, total polymyxin B1, polymyxin B2, and polymyxin B1-Ile concentrations in human blood plasma were quantified using LC-MS/MS ([Meng et al., 2016]; [Hee et al., 2017]). The standard used in our experiments was the USP standard with the batch number of R104F0. The chromatographic column was the Kinetex C18 (3 μm × 2.1 mm×100 mm. Phenomenex). A: B mobile phase was 0.1% formic acid to acetonitrile. With changes in the linear velocity ratio, gradient elution was as follows: 15% −15% B, 0–2.0 min; 15%–10% B, 2.01–4.0 min; 10%–30% B, 4.01–5.0 min; 15% B, 5.01 min; and 15%–15% B, 5.02–10 min. The flow rate was constrained to 0.8 mL min^-1, and the column temperature was set to 40°C. The parent/daughter ion mass ratios used in the mass spectrometry were m/z 602.6/241.2 (polymyxin B1 and B1-Ile) and m/z 595.6/202.1 (polymyxin B2). Plasma samples (100 μL) were collected from centrifuged blood samples, mixed with 500 μL precipitant (acetonitrile with 6.67% formic acid) and vortexed well for 1 min. The lower limit of quantification (LLOQ) of the bioanalytical method used for quantifying polymyxin B1, B2, and B1-Ile concentrations was 0.19, 0.02 and 0.02 mg L^-1, respectively. The linear relationships of polymyxin B1, B2, and B1-Ile concentrations in the range of 0.19–24.13 mg L^-1, 0.02–2.7 mg L^-1 and 0.02–2.38 mg L^-1 were considered good (R^2 = 0.99677, R^2 = 0.99656, R^2 = 0.99484) and the accuracy was within 95.3%–105.3%, 92.2%–104.8%, and 95.8%–105.4%. […] Finally, 200 μL of the supernatant from the centrifugation of the combination at 14,000 r min^-1 for 10 min was employed to measure the amounts of polymyxin B.
In order to analyze the total concentrations of polymyxin B, Pmetrics version 1.9.7 (Laboratory of Applied Pharmacokinetics and Bioinformatics, Los Angeles, CA) was used by R version 4.1.3 ([Neely et al., 2012]). PK parameters were evaluated by a one-compartment model and a two-compartment model. The multiplicative error model (SD ×gamma), which requires the observation concentration values to be weighted by the reciprocal of the error, was used to calculate the error structure model. Gamma is the process noise that results from incorrectly specified sampling time, dosage, etc. […]

[2] = cited from earlier work
Source text: TABLE 5 PPK studies of polymyxin B. | column: Estimation of population parameters || Since small samples were employed in this experiment, the non-parametric population modeling algorithm has theoretical advantages over parametric methods in detecting population PK/PD subgroups and outliers ([Goutelle et al., 2022]), so the non-parametric population modeling approach was chosen for modeling in this study. The values of CL (1.24 L h^-1) and V (16.64 L) (Table 3) in this study were in line with the ranges from previous reports, including the CL range (1.2–4.2 L h^-1) ([Sandri et al., 2013]) (Table 3) and the V range (5.63–34.4 L) (Table 5). However, the CL value was lower than t ...

[3] = data splitting, 20% of the data
[4] = data splitting, 80% of the data
[5] = final model 6, bootstrap, median
[6] = final model 6, full data set, 22 critically ill patients, iv, mean
[7] = final model 6, full data set, median
[8] = Acutely ill patients, n = 52, two-compartment model, ref Miglis et al. (2018)
[9] = Critically ill patients with CVVH, n = 53, two-compartment model, ref Wang et al. (2022)
[10] = Critically ill patients with/without CRRT, n = 53, two-compartment model, ref Luo et al. (2022)
[11] = Critically ill patients, n = 24, two-compartment model, ref Sandri et al. (2013)
[12] = Health Volunteers, n = 20, three-compartment model, ref Liu et al. (2021)
[13] = Patients with MDR-GNB infections, n = 46, two-compartment model, ref Wang et al. (2020)
[14] = Patients with/without ECMO, n = 13, non-compartment model, ref Surovoy et al. (2022)

In the case of `CC[C@H](C)CCCCC(=O)N[C@@H](CCN)C(=O)N[C@H](C(=O)N[C@@H](CCN)C(=O)N[C@H]1CCNC(=O)[C@H]([C@@H](C)O)NC(=O)[C@H](CCN)NC(=O)[C@H](CCN)NC(=O)[C@H](CC(C)C)NC(=O)[C@@H](Cc2ccccc2)NC(=O)[C@H](CCN)NC1=O)[C@@H](C)O` [polymyxin B] (X1-[Dab]T[Dab][Dab][Dab][dF]L[Dab][Dab]T; lactam 4-C), the “Q, mean value” [1, 3] was 2.56 L/h, the “Vc, mean value” [1, 3] was 13.58 L and the “Vp, mean value” [1, 3] was 64.60 L. For the same compound, the “Q, mean value” [1, 4] was 3.44 L/h, the “Vc, mean value” [1, 4] was 17.82 L and the “Vp, mean value” [1, 4] was 40.26 L. The “CL, bootstrap median” value [1, 5] was 1.22 L/h, the “Q, bootstrap median” value [1, 5] was 2.31 L/h and the “Vc, bootstrap median” value [1, 5] was 17.15 L. For the same compound, the “Vp, bootstrap median” value [1, 5] was 66.34 L, the “Q, mean” value [1, 6] was 3.04 L/h and the “Vc, mean” value [1, 6] was 16.64 ± 12.74 L. For the same compound, the “Vp, mean” value [1, 6] was 66.20 L, the “Q, median” value [1, 7] was 2.34 L/h and the “Vc, median” value [1, 7] was 13.52 L. The “Vp, median” value [1, 7] was 76.53 L, the clearance ([1]; plasma, iv, data splitting, 20% of the data, read-out: CL, mean value (converted)) was 21.8 mL/min and the clearance ([1]; plasma, iv, data splitting, 80% of the data, read-out: CL, mean value (converted)) was 22.5 mL/min. For the same compound, the clearance ([1]; plasma, iv, final model 6, full data set, 22 critically ill patients, iv, median, read-out: CL, median (converted)) was 20.3 mL/min, the clearance ([1]; final model 6 (two-compartment, covariates age and ALB), full data set, 22 critically ill patients, 64 samples, iv infusion, steady state, total plasma concentration, LC-MS/MS, NPAG, mean, read-out: CL, mean (converted)) was 20.7 mL/min and the CL ([2]; Acutely ill patients, n = 52, 156 samples, two-compartment model, ref Miglis et al. (2018)) was 2.63 L/h. The Q [2, 8] was 2.32 L/h, the V1 [2, 8] was 33.8 L and the V2 [2, 8] was 78.2 L. The CL ([2]; Clinical Samples, n = 43, 134 samples, one-compartment model, ref Kubin et al. (2018)) was 2.37 L/h, the V ([2]; Clinical Samples, n = 43, one-compartment model, ref Kubin et al. (2018)) was 34.4 L and the CLCRRT ([2]; Critically ill patients undergoing CRRT, n = 53 with/without CRRT, two-compartment model, ref Luo et al. (2022)) was 1.95 L/h. For the same compound, the CL ([2]; Critically ill patients with CVVH, n = 53, 275 samples, two-compartment model, ref Wang et al. (2022)) was 1.95 L/h, the CLCVVH [2, 9] was 4.52 L/h and the Q [2, 9] was 2.28 L/h. For the same compound, the V [2, 9] was 15.0 L, the V2 [2, 9] was 6.54 L and the CLwithoutCRRT ([2]; Critically ill patients with/without CRRT, n = 53, 189 samples, two-compartment model, ref Luo et al. (2022)) was 1.5 L/h. For the same compound, the Q [2, 10] was 1.34 L/h, the V [2, 10] was 11.7 L and the V2 [2, 10] was 17.9 L. For the same compound, the CL ([2]; Critically ill patients, n = 24, 100 samples, two-compartment model, ref Sandri et al. (2013)) was 1.66 L/h, the Q [2, 11] was 8.76 L/h and the V1 [2, 11] was 5.63 L. The V2 [2, 11] was 19.8 L, the CL [2, 12] was 1.62 L/h and the Q2 [2, 12] was 8.4 L/h. The Q3 [2, 12] was 0.384 L/h, the V [2, 12] was 4.26 L and the V2 [2, 12] was 3.66 L. The V3 [2, 12] was 2.7 L, the CL ([2]; Individuals with severe infections, n = 35, 139 samples, one-compartment model, ref Manchandani et al. (2018)) was 2.5 L/h and the V ([2]; Individuals with severe infections, n = 35, one-compartment model, ref Manchandani et al. (2018)) was 34.3 L. The CL ([2]; Patients with MDR-GNB infections, n = 46, 331 samples, two-compartment model, ref Wang et al. (2020)) was 1.786 L/h, the Q [2, 13] was 13.518 L/h and the V1 [2, 13] was 6.218 L. For the same compound, the V2 [2, 13] was 11.922 L, the CL ([2]; Patients with TDM, n = 32, 112 samples, one-compartment model, ref Yu et al. (2021)) was 1.59 L/h and the V ([2]; Patients with TDM, n = 32, one-compartment model, ref Yu et al. (2021)) was 20.5 L. For the same compound, the CL [2, 14] was 1.16 L/h, the V [2, 14] was 19.73 L and the CL ([2]; Renal transplant patients, n = 50, 151 samples, one-compartment model, ref Li et al. (2021)) was 1.18 L/h. The V ([2]; Renal transplant patients, n = 50, one-compartment model, ref Li et al. (2021)) was 12.09 L.
